For 1 molecule, zone of inhibition results are on record in ChEMBL document CHEMBL4613242, “Thiopeptide Defense by an Ant's Bacterial Symbiont” (2020).

Format in all cases: functional
Assay [1] relates to Pseudonocardia. The assay can be described thus: Antimicrobial activity against Pseudonocardia 17SE-8 at 0.1 ug measured on day 5 by agar diffusion assay. Particulars: 17SE-8, 120 h, read-out: DIZ.
Assay [2] concerns Pseudonocardia. The assay can be described thus: Antimicrobial activity against Pseudonocardia 17SE-9 at 0.1 ug measured on day 5 by agar diffusion assay. Particulars: 17SE-9, 120 h, read-out: DIZ.
Assay [3] has as its system Pseudonocardia. Description: Antimicrobial activity against Pseudonocardia 17SE-10 at 0.1 ug measured on day 5 by agar diffusion assay. Particulars: 17SE-10, 120 h, read-out: DIZ.
For assay [4], the system named is Pseudonocardia. The assay can be described thus: Antimicrobial activity against Pseudonocardia 17SM-1 at 0.1 ug measured on day 5 by agar diffusion assay. Particulars: 17SM-1, 120 h, read-out: DIZ.
Assay [5] has as its system Pseudonocardia. Description: Antimicrobial activity against Pseudonocardia 18AZ-4 at 0.1 ug measured on day 5 by agar diffusion assay. Particulars: 18AZ-4, 120 h, read-out: DIZ.
Assay [6] relates to Pseudonocardia. The assay can be described thus: Antimicrobial activity against Pseudonocardia 18PO-3 at 0.1 ug measured on day 5 by agar diffusion assay. To be noted: 18PO-3, 120 h, read-out: DIZ.
The subject of assay [7] is Pseudonocardia. Description: Antimicrobial activity against Pseudonocardia PLR1 at 0.1 ug measured on day 5 by agar diffusion assay. To be noted: PLR1, 120 h, read-out: DIZ.
The subject of a further assay is Bacillus subtilis. The assay can be described thus: Antimicrobial activity against Bacillus subtilis 3610 at 0.1 ug measured at 24 hrs by agar diffusion assay. Particulars: Bacillus subtilis, 3610, 24 h; read-out: DIZ.
The subject of a further assay is Candida albicans. Description: Antimicrobial activity against Candida albicans SC5314 at 0.1 ug measured at 24 hrs by agar diffusion assay. To be noted: SC5314, 24 h, read-out: DIZ.
For a further assay, the system named is Trichoderma harzianum. Description: Antimicrobial activity against Trichoderma harzianum T22 at 0.1 ug measured on day 5 by agar diffusion assay. To be noted: T22, 120 h, read-out: DIZ.
A further assay relates to Escovopsis sp. The assay can be described thus: Antimicrobial activity against Escovopsis sp. at 0.1 ug measured on day 5 by agar diffusion assay. To be noted: 120 h, read-out: DIZ.

Regarding `C=C(NC(=O)C(=C)NC(=O)c1csc(-c2ccc3c(n2)-c2csc(n2)-c2csc(n2)[C@@H]2C(C)C[C@H](O)N2C(=O)[C@H](Cc2ccc(O)cc2)NC(=O)C2CSC(=N2)[C@H](Cc2ccccc2)NC(=O)c2csc(n2)[C@H](CC(N)=O)NC(=O)c2nc-3oc2C)n1)C(=O)O` (stereo partly specified), the zone of inhibition at 0.1 µg/disc was 18.7 mm with Pseudonocardia [1]; 0 mm with Pseudonocardia [2]; 13.7 mm with Pseudonocardia [3]; 28.3 mm in the assay on Pseudonocardia [4]; 23 mm in the assay on Pseudonocardia [5]; 20 mm in the assay on Pseudonocardia [6]. Moreover, the zone of inhibition at 0.1 µg/disc worked out at 18 mm in the assay with Pseudonocardia [7]; 9.7 mm in the assay with Bacillus subtilis; 0 mm with Candida albicans; 0 mm in the assay on Trichoderma harzianum; 0 mm in the assay on Escovopsis sp..
